These results are taken from patent US10329289B2, “6,7-dihydro-5H-pyrrolo[3,4-B]pyridin-5-one allosteric modulators of the M4 muscarinic acetylcholine receptor” (Merck Sharp & Dohme Corp., priority 2015, dated 2019).

Each structure is given as a SMILES string.

The target of this assay is T1, human M4 muscarinic acetylcholine receptor (Homo sapiens, UniProt P08173).
T1 construct: expressed in transfected cells; host or cells: CHO-K1
T1 sequence (P08173 1-479): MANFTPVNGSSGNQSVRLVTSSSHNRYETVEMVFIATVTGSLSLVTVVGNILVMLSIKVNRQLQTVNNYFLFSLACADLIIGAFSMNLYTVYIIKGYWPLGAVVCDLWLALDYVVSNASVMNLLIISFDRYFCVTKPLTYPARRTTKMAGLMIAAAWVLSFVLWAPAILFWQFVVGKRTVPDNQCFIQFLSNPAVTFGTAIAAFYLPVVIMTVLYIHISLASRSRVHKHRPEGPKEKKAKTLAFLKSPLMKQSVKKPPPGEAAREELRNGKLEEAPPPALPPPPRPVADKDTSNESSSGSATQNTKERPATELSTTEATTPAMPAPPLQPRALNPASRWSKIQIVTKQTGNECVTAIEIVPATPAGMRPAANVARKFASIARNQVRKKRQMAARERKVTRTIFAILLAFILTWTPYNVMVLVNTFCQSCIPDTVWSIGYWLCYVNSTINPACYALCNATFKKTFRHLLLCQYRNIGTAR
Nature of the assay: human FLIPR-based M4 PAM assay (Ca2+ mobilization, CHO-K1 cells with human M4 receptor and Gαqi5). Format: cell-based. As to conditions: acetylcholine at 20% of maximum response, read-out: M4 PAM IP. A digest of the protocol: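 Calcium-mobilization (FLIPR) readout in dye-loaded CHO-K1 cells co-expressing human M4 receptor and Gαqi5. Potentiation measured against acetylcholine at a concentration giving 20% of maximal response, with an optional 70% addition; the reported value is the curve inflection point from a 4-parameter logistic fit.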
(Calcium flux is commonly read through the fluorescence of an indicator in the cells.)
For the molecule `Cc1cc2c(nc1N1CCC(OCC3(F)CCCC3)CC1)CNC2=O` [Example 180, 2-(4-((1-fluorocyclopentyl)meth-oxy)piperidin-1-yl)-3-methyl-6,7-dihydro-5H-pyrrolo[3,4-b]pyridin-5-one], the EC50 turned out to be 1650 nM.
With `Cc1cc2c(nc1N1CCC(OCC(C)(C)C)CC1)CNC2=O` [Example 182, 3-methyl-2-(4-(neopentyloxy)piperidin-1-yl)-6,7-dihydro-5H-pyrrolo[3,4-b]pyridin-5-one] the figure was 3790 nM.
As for `Cc1cc2c(nc1N1CCC(Oc3ccc4nccn4c3)CC1)CNC2=O` [Example 182A, 2-(4-(imidazo[1,2-a]pyridin-6-yloxy)piperidin-1-yl)-3-methyl-6,7-dihydro-5H-pyrrolo[3,4-b]pyridin-5-one], the figure is 473 nM; as for `Cc1cc2c(nc1N1CCC(OCc3ncco3)CC1)CNC2=O` [Example 183, 3-methyl-2-(4-(oxazol-2-ylmethoxy)piperidin-1-yl)-6,7-dihydro-5H-pyrrolo[3,4-b]pyridin-5-one], 4780 nM; as for `Cc1cc2c(nc1N1CCC(OCC3(C)CCC3)CC1)CNC2=O` [Example 184, 3-methyl-2-(4-((1-methylcyclobutyl)meth-oxy)piperidin-1-yl)-6,7-dihydro-5H-pyrrolo[3,4-b]pyridin-5-one], 246 nM.
As for `CCC1(COC2CCN(c3nc4c(cc3C)C(=O)NC4)CC2)CC1` [Example 186, 2-(4-((1-ethylcyclopropyl)meth-oxy)piperidin-1-yl)-3-methyl-6,7-dihydro-5H-pyrrolo[3,4-b]pyridin-5-one], the figure is 77 nM.
For the molecule `Cc1cc2c(nc1N1CCC(OCC34CC(C3)C4)CC1)CNC2=O` [Example 187, 2-(4-(bicyclo[1.1.1]pentan-1-ylmethoxy)piperidin-1-yl)-3-methyl-6,7-dihydro-5H-pyrrolo[3,4-b]pyridin-5-one], the EC50 was determined as 223 nM.
As for `CCc1cc2c(nc1N1CCC(OCC3(C)CC3(F)F)CC1)CNC2=O` (centres unmarked) [Example 187A, 2-(4-((2,2-difluoro-1-methylcyclopropyl)meth-oxy)piperidin-1-yl)-3-ethyl-6,7-dihydro-5H-pyrrolo[3,4-b]pyridin-5-one], the figure is 295 nM; as for `Cc1cc2c(nc1N1CCC(OCC(C)C(F)(F)F)CC1)CNC2=O` (centres unmarked) [Example 188, 3-methyl-2-(4-(3,3,3-trifluoro-2-methylpropoxy)piperidin-1-yl)-6,7-dihydro-5H-pyrrolo[3,4-b]pyridin-5-one], 1220 nM.
Regarding `Cc1cc2c(nc1N1CCC(OCC3(C(F)(F)F)CC3)CC1)CNC2=O` [Example 189, 3-methyl-2-(4-((1-(trifluoromethyl)cyclo-propyl)methoxy)piperidin-1-yl)-6,7-dihydro-5H-pyrrolo[3,4-b]pyridin-5-one], the EC50 came out at 265 nM.
For `COC(=O)c1c(C)c(N2CCC(Oc3ccc(OC)nc3)CC2)nc2c1C(=O)NC2` [Example 190, methyl 2-(4-((6-methoxypyridin-3-yl)oxy)piperidin-1-yl)-3-methyl-5-oxo-6,7-dihydro-5H-pyrrolo[3,4-b]pyridine-4-carboxylate], the EC50 is 5610 nM.
With `Cc1cc2c(nc1N1CCC(OCc3cnn(C)c3)CC1)CNC2=O` [Example 190A, 3-methyl-2-(4-((1-methyl-1H-pyrazol-4-yl)methoxy)piperidin-1-yl)-6,7-dihydro-5H-pyrrolo[3,4-b]pyridin-5-one] the figure was 820 nM; with `Cc1cc2c(nc1N1CCC(OCC3CCCCC3)CC1)CNC2=O` [Example 191, 2-(4-(cyclohexylmethoxy)piperidin-1-yl)-3-methyl-6,7-dihydro-5H-pyrrolo[3,4-b]pyridin-5-one], 492 nM.
With `Cc1cc2c(nc1N1CCC(OCC(C)C)CC1)CNC2=O` [Example 192, 2-(4-isobutoxypiperidin-1-yl)-3-methyl-6,7-dihydro-5H-pyrrolo[3,4-b]pyridin-5-one] the figure was 310 nM; with `COC1(COC2CCN(c3nc4c(cc3C)C(=O)NC4)CC2)CC1` [Example 193, 2-(4-((1-methoxycyclopropyl)methoxy)piperidin-1-yl)-3-methyl-6,7-dihydro-5H-pyrrolo[3,4-b]pyridin-5-one], 1220 nM.
`Cc1cc2c(nc1N1CCC(Oc3cnc4c(c3)CCCO4)CC1)CNC2=O` [Example 194, 2-(4-((3,4-dihydro-2H-pyrano[2,3-b]pyridin-6-yl)oxy)piperidin-1-yl)-3-methyl-6,7-dihydro-5H-pyrrolo[3,4-b]pyridin-5-one]: the EC50 came out at 532 nM.
As for `Cc1c(N2CC[C@@H](Oc3ccc4c(c3)COCC4)[C@@H](F)C2)nc2c(c1C)C(=O)NC2` [Example 194A, 2-((3S,4R)-3-fluoro-4-(isochroman-7-yloxy)piperidin-1-yl)-3,4-dimethyl-6,7-dihydro-5H-pyrrolo[3,4-b]pyridin-5-one], the figure is 20 nM.
With `COCc1ccc(OC2CCN(c3nc4c(cc3C)C(=O)NC4)CC2)cc1` [Example 195, 2-(4-(4-(methoxymethyl)phen-oxy)piperidin-1-yl)-3-methyl-6,7-dihydro-5H-pyrrolo[3,4-b]pyridin-5-one] the figure was 68 nM; with `Cc1cc2c(nc1N1CC[C@@H](Oc3ccc(F)cc3)[C@@H](F)C1)CNC2=O` [Example 196, 2-((3S,4R)-3-fluoro-4-(4-fluorophenoxy)piperidin-1-yl)-3-methyl-6,7-dihydro-5H-pyrrolo[3,4-b]pyridin-5-one], 22 nM; with `Cc1cc2c(nc1N1CCC(Oc3cnc4[nH]nc(C)c4c3)CC1)CNC2=O` [Example 197, 3-methyl-2-(4-((3-methyl-1H-pyrazolo[3,4-b]pyridin-5-yl)oxy)piperidin-1-yl)-6,7-dihydro-5H-pyrrolo[3,4-b]pyridin-5-one], 6070 nM.
With `Cc1cc2c(nc1N1CCC(Oc3ccc4ncnn4c3)CC1)CNC2=O` [Example 197A, 2-(4-([1,2,4]triazolo[1,5-a]pyridin-6-yloxy)piperidin-1-yl)-3-methyl-6,7-dihydro-5H-pyrrolo[3,4-b]pyridin-5-one] the figure was 285 nM; with `Cc1cc2c(nc1N1CCC(Oc3ccc4c(c3)OCC4)CC1)CNC2=O` [Example 198, 2-(4-((2,3-dihydrobenzofuran-6-yl)oxy)piperidin-1-yl)-3-methyl-6,7-dihydro-5H-pyrrolo[3,4-b]pyridin-5-one], 18 nM.
Regarding `CCc1cc2c(nc1N1CCC(Oc3ccc4c(c3)OCC4)CC1)CNC2=O` [Example 198A, 2-(4-((2,3-dihydrobenzofuran-6-yl)oxy)piperidin-1-yl)-3-ethyl-6,7-dihydro-5H-pyrrolo[3,4-b]pyridin-5-one], the EC50 was 110 nM.
As for `Cc1cc2c(nc1N1CCC(Oc3ccc4c(c3)CO[C@@H]4C)CC1)CNC2=O` [Example 199A, (R)-3-methyl-2-(4-((1-methyl-1,3-dihydro-2-benzofuran-5-yl)oxy)piperidin-1-yl)-6,7-dihydro-5H-pyrrolo[3,4-b]pyridin-5-one], the figure is 60 nM; as for `Cc1cc2c(nc1N1CCC(Oc3ccc4c(c3)CO[C@H]4C)CC1)CNC2=O` [Example 199B, (S)-3-methyl-2-(4-((1-methyl-1,3-dihydro-2-benzofuran-5-yl)oxy)piperidin-1-yl)-6,7-dihydro-5H-pyrrolo[3,4-b]pyridin-5-one], 72 nM; as for `CCc1cc2c(nc1N1CCC(Oc3ccc4c(c3)COCC4)CC1)CNC2=O` [Example 200, 3-ethyl-2-(4-(isochroman-7-yloxy)piperidin-1-yl)-6,7-dihydro-5H-pyrrolo[3,4-b]pyridin-5-one], 96 nM.
With `CCc1cc2c(nc1N1CCC(Oc3ccc4c(c3)CCOC4)CC1)CNC2=O` [Example 200A, 3-ethyl-2-(4-(isochroman-6-yloxy)piperidin-1-yl)-6,7-dihydro-5H-pyrrolo[3,4-b]pyridin-5-one] the figure was 58 nM; with `CCc1cc2c(nc1N1CCC(Oc3cccnc3)CC1)CNC2=O` [Example 201, 3-ethyl-2-(4-(pyridin-3-yloxy)piperidin-1-yl)-6,7-dihydro-5H-pyrrolo[3,4-b]pyridin-5-one], 230 nM.
With `Cc1cc2c(nc1N1CCC(Oc3cnc4c(c3)CCO4)CC1)CNC2=O` [Example 201A, 2-(4-((2,3-dihydrofuro[2,3-b]pyridin-5-yl)oxy)piperidin-1-yl)-3-methyl-6,7-dihydro-5H-pyrrolo[3,4-b]pyridin-5-one] the figure was 68 nM.
With `CCc1cc2c(nc1N1CCC(Oc3ccccc3)CC1)CNC2=O` [Example 202, 3-ethyl-2-(4-phenoxypiperidin-1-yl)-6,7-dihydro-5H-pyrrolo[3,4-b]pyridin-5-one], the EC50 is 148 nM.
As for `Cc1cc2c(nc1N1CCC(Oc3ccc4nn(C)cc4c3)CC1)CNC2=O` [Example 202A, 3-methyl-2-(4-((2-methyl-2H-indazol-5-yl)oxy)piperidin-1-yl)-6,7-dihydro-5H-pyrrolo[3,4-b]pyridin-5-one], the figure is 96 nM.
With `COCc1ccc(OC2CCN(c3nc4c(cc3C)C(=O)NC4)CC2)cn1` [Example 203, 2-(4-((6-(methoxymethyl)pyridin-3-yl)oxy)piperidin-1-yl)-3-methyl-6,7-dihydro-5H-pyrrolo[3,4-b]pyridin-5-one], the EC50 worked out at 531 nM.
